# According to paper PMC2010101 (British Journal of Cancer, 1979):
# Where two headings read alike, the source gives them in different places.
# Target: T1, low-Km cAMP phosphodiesterase
# T1 construct: gene Pde3b; not purified, mixture of isoenzymes
# Assay: [3H]cAMP hydrolysis, paper chromatography
# Format: biochemical, Rattus norvegicus
# Conditions: 0.25 µM cAMP, 100 mM Tris-HCl pH 7.5, 4 mM MgCl2, 30 °C, 5 min, crude fraction, read-out: I50
IC50 (competitive),SMILES,IC50
790 µM,"CN(C)N=Nc1[nH]cnc1C(N)=O [DTIC, 5-(3,3-dimethyl-1-triazeno)imidazole-4-carboxamide]",–
–,Cn1c(=O)c2[nH]cnc2n(C)c1=O [theophylline],350 µM
